Each block holds one compound with its values, some of them ahead of it.
Key:
[1] = Lactam solubility in bio-surfactant solutions (48 h agitation, filtration, HPLC); format: physicochemical
Protocol: Bio-surfactant solutions at the levels shown in the results below were prepared for screening. The maximum level tested was dictated by the solubility of the surfactant in water. The following representative example uses 4-(4-chlorophenyl)-5-methylene-pyrrol-2-one.
Solid lactam was weighed into Whatman® Mini Uniprep sample vials, fitted with a 0.45 μm nylon filter (2.7 to 3.3 mg per vial). 50 μL of a solvent solution was placed into each sample vial, the vial capped and shaken briefly by hand to agitate the solid, then placed on a Thermo Labsystems Wellmix® plate shaker and continuously agitated for 48 hours. After this time, the excess solid in the vial was removed using the integral filter membrane and the resultant solution analysed by HPLC to determine the level of dissolved lactam.
Samples were analysed using an Agilent 1200® series HPLC fitted with a Hypersil Gold C18 column (15×2.1×3 μm), using isocratic elution with 60/40 methanol/water (+0.1% Formic Acid) at a flow rate of 0.4 mL/min, using a DAD detector at 285 nm. 4-(4-Chlorophenyl)-5-methylene-pyrrol-2-one has a retention time of ˜2.8 minutes.
Each test surfactant solution was tested in triplicate and the mean value of lactam in solution calculated. Values of solubility were quoted as the improvement in aqueous solubility vs water alone (i.e. mean level of lactam dissolved in water+solvent/mean level of lactam dissolved in water) to allow comparison between screens conducted on different days.

[2] = produced by Rhodococcus erythropolis grown on n-alkane; cited from earlier work
[3] = Additive Di-rhamnolipid R2, 0% in water (water alone)
[4] = Additive Di-rhamnolipid R2, 0.1% in water
[5] = Additive Di-rhamnolipid R2, 0.5% in water
[6] = Additive Di-rhamnolipid R2, 1% in water
[7] = Additive Di-rhamnolipid R2, 2% in water
[8] = Additive Mono-rhamnolipid R1, 0% in water (water alone)
[9] = Additive Mono-rhamnolipid R1, 0.1% in water
[10] = Additive Mono-rhamnolipid R1, 0.5% in water
[11] = Additive Mono-rhamnolipid R1, 1% in water
[12] = Additive Mono-rhamnolipid R1, 2% in water
[13] = Additive Mono-rhamnolipid R1, 4% in water

Mean Lactam Level in Solution [1, 3]: 2.7 ppm
Solubility Increase vs water alone [1, 3]: 1.0
Mean Lactam Level in Solution [1, 4]: 15.2 ppm
Solubility Increase vs water alone [1, 4]: 5.7
Mean Lactam Level in Solution [1, 5]: 42.6 ppm
Solubility Increase vs water alone [1, 5]: 15.9
Mean Lactam Level in Solution [1, 6]: 77.5 ppm
Solubility Increase vs water alone [1, 6]: 28.9
Mean Lactam Level in Solution [1, 7]: 139.6 ppm
Solubility Increase vs water alone [1, 7]: 52.1
Mean Lactam Level in Solution [1, 8]: 2.7 ppm
Solubility Increase vs water alone [1, 8]: 1.0
Mean Lactam Level in Solution [1, 9]: 10.9 ppm
Solubility Increase vs water alone [1, 9]: 4.1
Mean Lactam Level in Solution [1, 10]: 39.3 ppm
Solubility Increase vs water alone [1, 10]: 14.7
Mean Lactam Level in Solution [1, 11]: 75.3 ppm
Solubility Increase vs water alone [1, 11]: 28.1
Mean Lactam Level in Solution [1, 12]: 149.7 ppm
Solubility Increase vs water alone [1, 12]: 55.9
Mean Lactam Level in Solution [1, 13]: 194.8 ppm
Solubility Increase vs water alone [1, 13]: 72.7
Compound: C=C1NC(=O)C=C1c1ccc(Cl)cc1 [4-(4-chlorophenyl)-5-methylene-pyrrol-2-one]

Compound: Phosphatidylethanolamine
CMC [2]: 30 mg/L
interfacial tension between water and hexadecane [2]: less than 1 mN m^−1

— patent US10986837B2, “Lactam solubility” (Conopco, Inc., priority 2015, dated 2021)
